# Experiments:
# [1] = target: T1, Indoleamine 2,3-dioxygenase 2 (Homo sapiens) (UniProt Q6ZQW0); experiment: Inhibition of human IDO2 at 10 uM using L-tryptophan as substrate incubated for 30 min assessed as reduction in conversion of N-formyl kynurenine to kynurenine relative to control
# T1 sequence (whole entry): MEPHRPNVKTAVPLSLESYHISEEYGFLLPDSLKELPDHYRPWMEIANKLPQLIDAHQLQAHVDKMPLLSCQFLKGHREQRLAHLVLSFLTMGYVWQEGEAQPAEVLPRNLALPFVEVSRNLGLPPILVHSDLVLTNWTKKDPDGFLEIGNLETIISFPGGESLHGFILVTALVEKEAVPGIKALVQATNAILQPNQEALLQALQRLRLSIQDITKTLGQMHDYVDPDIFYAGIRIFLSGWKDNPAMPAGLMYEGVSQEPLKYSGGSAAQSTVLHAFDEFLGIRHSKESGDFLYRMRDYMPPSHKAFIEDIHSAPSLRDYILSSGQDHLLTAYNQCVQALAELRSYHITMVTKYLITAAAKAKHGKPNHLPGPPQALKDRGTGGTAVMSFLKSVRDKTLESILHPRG
# [2] = target: T2, Indoleamine 2,3-dioxygenase 2 (Homo sapiens, UniProt Q6ZQW0); experiment: Inhibition of human IDO2 using L-tryptophan as substrate assessed as reduction in conversion of N-formyl kynurenine to kynurenine
# T2 sequence (Q6ZQW0 whole entry): T1 sequence (whole entry)
# [3] = target: T3, Indoleamine 2,3-dioxygenase 1 (Homo sapiens, UniProt P14902); experiment: Inhibition of IDO1 in human U87MG cells in presence of L-tryptophan incubated for 24 h; format: cell-based
# [4] = target: T3, Indoleamine 2,3-dioxygenase 1; experiment: Inhibition of IDO1 (unknown origin) using L-tryptophan as substrate incubated for 30 min assessed as reduction in conversion of N-formyl kynurenine to kynurenine by dixon plot analysis
# T3 sequence (P14902 whole entry): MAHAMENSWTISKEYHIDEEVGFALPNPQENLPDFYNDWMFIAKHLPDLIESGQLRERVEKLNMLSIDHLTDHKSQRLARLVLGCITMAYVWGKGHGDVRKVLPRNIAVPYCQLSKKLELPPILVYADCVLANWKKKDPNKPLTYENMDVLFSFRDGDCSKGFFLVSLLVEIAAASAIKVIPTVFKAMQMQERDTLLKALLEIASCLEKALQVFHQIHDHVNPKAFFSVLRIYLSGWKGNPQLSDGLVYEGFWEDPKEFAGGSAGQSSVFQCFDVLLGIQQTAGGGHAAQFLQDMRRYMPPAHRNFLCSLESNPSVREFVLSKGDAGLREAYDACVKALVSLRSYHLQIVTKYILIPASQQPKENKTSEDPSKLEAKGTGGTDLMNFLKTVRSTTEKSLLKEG
SMILES,inhibition [1] [%],further results
O=C1c2ccccc2-n2c1nc1ccccc1c2=O,18 to 47,–
Cn1cc(C[C@@H](N)C(=O)O)c2ccccc21,8,–
Cn1cc(C[C@H](N)C(=O)O)c2ccccc21,8,–
O=C1c2c(Cl)cccc2-n2c1nc1ccccc1c2=O,18 to 47,–
O=C1c2ccc(Cl)cc2-n2c1nc1ccccc1c2=O,18 to 47,–

# Continued, in another order:
inhibition [1] [%],SMILES,further results
18 to 47,O=C1c2cc(Br)ccc2-n2c1nc1ccccc1c2=O,–
18 to 47,O=C1c2cc(F)ccc2-n2c1nc1ccc(F)cc1c2=O,–
63,O=C1c2cc([N+](=O)[O-])ccc2-n2c1nc1ccccc1c2=O,IC50 [2]: 0.00187 mM
18 to 47,Cc1ccc2c(c1)C(=O)c1nc3ccccc3c(=O)n1-2,IC50 [3]: > 3.9 mM
18 to 47,O=C1c2cc(F)ccc2-n2c1nc1ccccc1c2=O,–
18 to 47,O=C1c2ccccc2-n2c1nc1ccc(F)cc1c2=O,IC50 [3]: > 3.9 mM; Ki [4]: > 3.9 mM

# From ChEMBL document CHEMBL4482322, “Uses of tryptanthrin and derivative thereof in preparing hldo2 inhibitor” (2017)
